The structures appear in SMILES notation.

In turn, `CCSc1c(C=O)c(=O)n(C)c(=O)n1C` displayed a melting point of 72 °C.
The value for `CC[C@H]1COC(=O)N1c1nc(-c2ccc(Br)cc2)c(Cl)s1` was 137 to 139 °C.
In the case of `Oc1cc(-c2ccccc2)nc(O)n1` it was 195 to 200 °C; in that of `Cc1ccc(-n2c(=O)[nH]c(C(F)(F)F)c(F)c2=O)cc1C(=O)OC(C)C`, 97 to 100 °C; in that of `CCCCCCCCCCCCCCCCSCC(C)(C)CO`, 25 to 28 °C.
Molecule `OCC1OC(n2cnc3c(NC4CCc5ccccc54)ncnc32)C(O)C1O` (stereo not drawn) registered a melting point of 120 to 122 °C.
As to `Cc1ccc(-c2cc(C(F)(F)F)nn2-c2ccc(C#N)cc2)cc1`, the melting point was 125 to 126 °C.
In the case of `CCCCCCCC(O)CNCCCNCC(O)CCCCCCC` (stereo not drawn) it was 107 to 109 °C.
The value for `Cc1nnc(-c2cccc(I)c2)o1` was 104 to 105 °C; that for `CCOC(=O)[C@H](Cc1ccc(-c2c(OC)cc(CO)cc2OC)cc1)NC(=O)OC(C)(C)C` was 142 to 143 °C.
`C1=NCCN1c1ccccc1` registered a melting point of 45 °C.
With `COc1cc(N)c(SCc2ccccc2)cc1OC`, the melting point was 86 to 88 °C.
The molecule `Cc1cccc(-c2[nH]c(C(C)C)nc2-c2cccc(-c3ccc(NS(C)(=O)=O)cc3F)c2)n1` had a melting point of 179 to 184 °C.
The value for `Cn1nc(C(F)(F)F)c(CSC2=NOC(C)(C)C2)c1OC(F)F` was 39 to 40 °C; that for `COc1ccc2cc(C(=O)C(C)OS(C)(=O)=O)ccc2c1` (stereo not drawn) was 149 to 151 °C; that for `c1ccc(CN2CCN(c3cccc4cccnc34)CC2)cc1` was 116 to 118 °C.
Consider `CCCC(=O)C1=C(O)CC(c2cc(C(C)C)no2)CC1=O` (stereo not drawn), for which the melting point lay in the range of 105 to 107 °C.
In the case of `Fc1ccc2c(c1)C(OCc1c(F)cccc1F)C(Cn1ccnc1)S2` (stereo not drawn) it was 167 to 168 °C; in that of `CC(CBr)N1CCN(c2ccccn2)CC1` (stereo not drawn), 50 to 51 °C; in that of `CCCC(=O)Nc1c([N+](=O)[O-])c(C(C)(C)C)nn1-c1c(Cl)cc(C(F)(F)F)cc1Cl`, 152 to 154 °C.
The value for `OC(CCCN1CC=C(c2cc(C(F)(F)F)on2)CC1)c1ccc(F)cc1` (stereo not drawn) was 120 to 122 °C.
`CC1CCN2C=CC3=C(N=C12)C(c1c[nH]c2ccccc12)CC=C3` (stereo not drawn) had a melting point of 190 to 192 °C.
The value for `CCn1ncc2c3onc(-c4cccc(O)c4)c3cnc21` was 187 to 188 °C; that for `COC(=O)CCCCCc1nn(-c2ccc(F)cc2)c2c1CCC2` was 39 to 40 °C.
For `CCC(CC)c1cccc2[nH]c(=O)n(C)c12`, the melting point is 130 to 132 °C.
Molecule `Cc1nc(-n2cnn(CCCC(F)(F)F)c2=O)sc1C(=O)NCc1cccnc1` showed a melting point of 184 to 185 °C.
In the case of `COc1ccc(CNc2cc(C(O)CNC(C)(C)CCn3cnc4ccccc43)ccc2O)cc1` (stereo not drawn) it was 154 to 155 °C; in that of `CC(C)c1ncc(O)cn1`, 184 °C; in that of `Cc1nc(N2CCN(CC3CCCCC3)C2=O)sc1C(=O)NCc1cccnc1`, 134 to 136 °C.
In the case of `C#CCNC(=O)N1CC(c2ccc(C(C)(C)C)cc2)C1` it was 141 °C.
In the case of `COc1ccc(C2c3[nH]c4ccccc4c3CCN2C(=O)C=Cc2ccccc2)cc1` (stereo not drawn) it was 127 °C; in that of `CN(C)CCc1c[nH]c2ccc(Oc3ccc(Br)cc3)cc12`, 160 to 162 °C.
For the molecule `O=C(O)COc1ccc(OCCC(c2ccccc2)(c2ccccc2)c2ccccc2)cc1`, the melting point was 66 to 68 °C.
The value for `CN1C(=O)C(C(=O)Nc2ccc(Oc3nc(C(F)(F)F)nn3C)cc2)C(=O)N(C)C1=O` was 202 to 204 °C; that for `Cc1cc2c(-c3ccccc3)c(CNC(=O)c3cc4ccccc4[nH]3)n(C)c(=O)c2cc1C` was 303 to 305 °C.
The value for `O=c1oc2ccccc2c(O)c1CCC(O)c1ccccc1` (stereo not drawn) was 138 to 140 °C.
The value for `CC(=O)c1ccc(OC(C)c2ccnc3ncnn23)cc1` (stereo not drawn) was 136 to 138 °C; that for `CNC(=O)Cn1c(-c2ccc(Cl)cc2)nc2ccc(Cl)nc21` was over 250 °C; that for `CCCc1ccc(S(=O)(=O)c2ccccc2)cc1` was 83 to 85 °C.
For `CN1CCNC1=NC(=S)Nc1ccccc1`, the melting point was 205 to 208 °C.
For the molecule `COc1c(O)ccc(C(=O)c2ccccc2)c1Cl`, the melting point lay within 123 to 125 °C.
The value for `CCCc1nc2ccnn2c(O)c1Cc1ccc(-c2ccccc2-c2nnn[nH]2)cc1` was over 320 °C.
In the case of `O[C@@H]1c2ccccc2C=C[C@H]1N1CCCC1` (relative stereo) it was 140 to 141 °C; in that of `C=CS(=O)(=O)c1ccc(NC(C)=O)cc1`, 122 °C.
With `CCOCC(O)COc1ccc(NC(=O)CCS(C)(=O)=O)cc1` (stereo not drawn), the melting point was 111 to 112 °C.
Molecule `CC1=c2cc(Br)ccc2=NC1=O` had a melting point of 119 to 120 °C.
The value for `CC(OS(C)(=O)=O)c1ccc([N+](=O)[O-])cc1` (stereo not drawn) was 70 °C.
In the case of `O=S1(=O)N=C(n2ccnc2)Nc2ccc(C(F)(F)F)cc21` it was 211 to 214 °C.
In the case of `Cc1cccc(Nc2cc(Nc3ccc(OCCCN(C)C)cc3)ncn2)c1` it was 204 to 207 °C.
`Cc1cc(O)c(Oc2ccccc2C#N)cc1[N+](=O)[O-]`: the melting point lay within 157 to 159 °C.
The value for `CCSc1ccc(C(=O)O)nc1SCC` was 112 to 113 °C; that for `O=C1c2c(Cl)cccc2-n2cnc(-c3nc(CN(CC4CC4)CC4CC4)no3)c2[C@@H]2CCN12` was 155 to 160 °C; that for `CCOC(=O)c1ccc(-c2csc(-c3ccc(Cl)cc3)n2)cc1` was 105 to 106 °C.
In the case of `Cc1cccc2oc(Nc3ccc(C(=O)O)cc3)nc12` it was 327 to 329 °C; in that of `Cc1cccnc1C(=O)NCCNC(=O)OC(C)(C)C`, 81 to 82 °C.
`CCNC(=O)CCCC=CCC1C(O)CC(O)C1C=CC(O)CCc1ccccc1` (stereo not drawn): the melting point was 64 to 66 °C.
For `O=C(c1ccccc1)c1cccc(Cc2c(O)c3ccc(Cl)cc3[nH]c2=O)c1`, the melting point lay in the range of 294 to 295 °C.
The value for `COc1ccc(C2CCN(C(=O)Nc3ccc4cc(CN5C(C)(C)CCCC5(C)C)ccc4c3)CC2)cc1` was 164 to 166 °C; that for `CC1(C)C(=O)Oc2ccc3cc(N)c(Cn4cncn4)cc3c21` was 160 to 163 °C.
The value for `Nc1cc(Cl)cc(Cl)c1C(=O)NCc1ccc(Cl)cc1` was 174 to 178 °C; that for `Cc1nc(NC(=O)c2cnn3c(C(F)(F)F)cc(-c4ccc(C(F)(F)F)c(Cl)c4)nc23)sc1S(N)(=O)=O` was 299 °C.
In the case of `CC(C)N1CC(C(=O)c2ccc(Cc3ccc(F)cc3)o2)=C(O)C1=O` it was 155 to 157 °C; in that of `O=C(O)CCCc1ccc(-c2ccc([N+](=O)[O-])cc2)cc1`, 160 to 161 °C; in that of `O=C(O)CCCCCCc1cncc2ccccc12`, 108 to 109 °C.
Regarding `CSCCC(NCc1ccccc1N)C(=O)O` (stereo not drawn), the melting point turned out to be 198 °C.
The value for `CCOC(=O)N1CCN(C2=Nc3ccccc3Cc3ccccc32)CC1` was 137 to 138 °C; that for `Nc1nc(N)nc(C=Cc2ccc(C=C3C(=O)NC(=O)NC3=O)cc2)n1` was over 350 °C; that for `O=C1OC(CCCCN2CCN(c3ccccc3O)CC2)CN1c1ccccc1` (stereo not drawn) was 123 to 129 °C.
The value for `COc1ccc(-c2coc3ccc(-c4nnc(SCc5cccc(F)c5)o4)cc23)cc1` was 146 to 147 °C; that for `COC(=O)C1CCCCN1S(N)(=O)=O` (stereo not drawn) was 72 to 74 °C.
The value for `COc1ccc2c(c1)cc(C=O)n2C` was 88 to 90 °C.
Molecule `CC(C)C1NC(=O)CN1C(=O)CNC(=O)OCc1ccccc1` (stereo not drawn) came in with a melting point of 137 to 139 °C.
The value for `CCCCCCCCCCCCCCCC(=O)Nc1cccc(C(=O)O)c1C` was 163 to 165 °C; that for `CN1CCC(c2cc3ccc(Cl)cc3c(=O)[nH]2)CC1` was 253 to 255 °C; that for `Cc1c(CC(=O)O)c2cc(OCc3nc4ccccc4s3)ccc2n1Cc1ccccc1` was 186 to 188 °C.
The value for `COC(=O)c1ccc2oc3c(c(=O)c2c1)CCC3=Cc1ccccc1C` was 203 to 205 °C; that for `Cc1cc(NC(=O)Cc2ccccc2)cc(C)c1S(=O)(=O)C[N+](=O)[O-]` was 158 to 159 °C.
The value for `Nc1nc2c(s1)CCN(CC=Cc1ccccc1F)CC2` was 96 to 102 °C; that for `Cc1nn(C)c(-c2ccccc2)c1NC(N)=S` was 258 to 260 °C.
`CCCC(C)c1nn(-c2ccc(C(F)(F)F)cn2)cc1CCCOc1c(CC(=O)O)cccc1OC` (stereo not drawn) registered a melting point of 107 to 108 °C.
In the case of `CCCCOc1ccc(C(=O)N[C@@H]2COc3cccc(N4CCN(C)CC4)c3C2)cc1`, the melting point was 192 to 194 °C.
In the case of `CCOC(=O)C1CCN(c2nc(CCl)c(C)s2)CC1` it was 76 to 77 °C; in that of `Cc1ccccc1NC(=O)Nc1ccc(CC(=O)N[C@@H](CC(C)C)C(=O)O)cc1`, 178 to 179 °C.
In the case of `Cn1ccc2cc(-c3csc4ncnc(NCc5ccccn5)c34)ccc21` it was 184 to 185 °C.
In the case of `O=C(c1ccc([N+](=O)[O-])cc1)N1CCC[C@@H]2CCCC[C@H]21` (relative stereo) it was 84 to 87 °C.
As to `Cc1ccc(CNc2c(NC(C)(C)C)c(=O)c2=O)c(C)c1`, the melting point lay within 228 to 229 °C.
In the case of `Cc1cc(C)c(-c2nc(-c3ccc(O)cc3O)nc(-c3ccc(O)cc3O)n2)c(C)c1`, the melting point lay in the range of 230 to 234 °C.
In the case of `CCOC(=O)c1cc(O)ccc1OCC` it was 49 to 53 °C.
The value for `CCCCN(CC(=O)N1c2ccccc2N(C)C(=O)c2cnc(-c3ccccc3)nc21)C(C)(C)C` was 111 to 113 °C; that for `CCCCc1oc2ccccc2c1C(=O)N(C)Cc1ccc2cc(O)ccc2c1` was 110 to 113 °C.
The value for `CC(c1oc2ccc(Br)cc2c(=O)c1-c1ccccc1F)n1cnc2c(N)ncnc21` (stereo not drawn) was 256 to 258 °C; that for `COC(=O)CSCCn1cc(C)c(=O)[nH]c1=O` was 75 °C.
For `COCn1ncc2cc(C(=O)OC)ccc21`, the melting point lay in the range of 73 to 74 °C.

What is called melting point is the temperature of the solid-liquid transition.

The values are drawn from a melting point compilation (Tetko et al.; mined from patent text by program, amines drawn as free bases though some values may be those of a salt).
